Assay results: EP0734445B1, “CHIMERIC GENES AND METHODS FOR INCREASING THE LYSINE CONTENT OF THE SEEDS OF CORN, SOYBEAN AND RAPESEED PLANTS” (priority 1993, dated 1995)

Assays:
[1] = biological target: T1, AKIII encoded by mutant lysC genes (Escherichia coli, UniProt P08660, T352I); assay: Inhibition of AKIII by lysine (mutant lysC genes); format: biochemical, E. coli; conditions: 15mM lysine; three of six mutant lysC plasmids
T1 construct: made in house; host or cells: E. coli (mutant derivatives of pBT436 selected in Gif106M1; the extract used is not described)
Method: (§1) Single colonies of Gif106M1 transformed with pBT436 were picked and resuspended in 200 µL of a mixture of 100 µL 1% lysine plus 100 µL of M9 media. The entire cell suspension containing 10^7-10^8 cells was spread on a petri dish containing M9 media supplemented with the arginine, isoleucine, and ampicillin. Sixteen petri dishes were thus prepared. From 1 to 20 colonies appeared on 11 of the 16 petri dishes. One or two (if available) colonies were picked and retested for lysine resistance and from this nine lysine-resistant clones were obtained. Plasmid DNA was prepared from eight of these and re-transformed into Gif106M1 to determine whether the lysine resistance determinant was plasmid-borne. Six of the eight plasmid DNAs yielded lysine-resistant colonies. Three of these six carried lysC genes encoding AKIII that was uninhibited by 15mM lysine, whereas wild type AKIII is 50% inhibited by 0.3-0.4 mM lysine and >90% inhibited by 1 mM lysine (see Example 2 for details).
The sequences of the three mutant lysC genes that encoded lysine-insensitive AK each differed from the wild type sequence by a single nucleotide, resulting in a single amino acid substitution in the protein. […] Thus, either of these single amino acid substitutions is sufficient to render the AKIII enzyme insensitive to lysine inhibition.

DE126 = assay: Growth inhibition in synthetic medium; format: cell-based, E. coli
Description: To select clones that carried the LKR gene a specially designed E. coli host, DE126 was constructed. Construction of DE126 occurred in several stages. • (1) A generalized transducing stock of coliphage Plvir was produced by infection of a culture of TST1 [F^-, araD139, delta (argF-lac) 205, flb5301, ptsF25, relA1, rpsL150, malE52::Tn10, deoC1, λ^-] (E. coli Genetic Stock Center #6137) using a standard method (for Methods see J. Miller, Experiments in Molecular Genetics). • (2) This phage stock was used as a donor in a transductional cross (for Method see J. Miller, Experiments in Molecular Genetics) with strain GIF106M1 [F^-, arg-, ilvA296, lysC1001, thrA1101, metL1000, λ^-, rpsL9, malT1, xyl-7, mtl-2, thi1(?), supE44(?)] (E. coli Genetic Stock Center #5074) as the recipient. Recombinants were selected on rich medium [L supplemented with DAP] containing the antibiotic tetracycline. […] The genes malE and lysC are separated by less than 0.5 minutes, well within cotransduction distance. • (3) 200 tetracycline-resistant transductants were thoroughly phenotyped; appropriate fermentation and nutritional traits were scored. […] The phenotype of one clone was determined to be Ilv^+, Arg^-, TetR, Lysine-sensitive, male specific phage (MS2)-sensitive, consistent with the simple transfer of F'16 from AB1528 to DE125. […]

Corynebacterium DHDPS = biological target: T2, Corynebacterium DHDPS (Corynebacterium glutamicum, UniProt P19808, S2A); assay: DHDPS enzyme activity assay; format: biochemical; conditions: lysine at 70 mM in the enzyme reaction mix
T2 construct: An 870 bp Nco I-EcoR I fragment from pFS766 containing the entire cordapA coding region; made in house; host or cells: E. coli BL21(DE3)/pFS766, supernatant of uninduced extract
Method: (§2) DHDPS enzyme activity was assayed as follows: Assay mix (for 10 X 1.0 mL assay tubes or 90 X 0.25 mL for microtiter dish); made fresh, just before use:
(§3) Color allowed to develop for 30-60 min. Precipitate spun down in eppendorf centrifuge. OD540 vs 0 min read as blank. For MicroAssay, aliquot 0.2 mL into microtiter well and read at OD530.
(§4) The specific activity of E. coli DHDPS in the supernatant fraction of induced extracts was about 50 OD540 units per minute per milligram protein in a 1.0 mL assay. E. coli DHDPS was sensitive to the presence of L-lysine in the assay. Fifty percent inhibition was found at a concentration of about 0.5 mM. For Corynebacterium DHDPS, the activity was measured in the supernatant fraction of uninduced extracts, rather than induced extracts. Enzyme activity was about 4 OD530 units per minute per milligram protein in a 0.25 mL assay.

E. coli DHDPS = biological target: T3, E. coli DHDPS (Escherichia coli, UniProt P0A6L2, F2V); assay: DHDPS enzyme activity assay; format: biochemical
T3 construct: An 880 bp Nco I-Kpn I fragment from pBT443 containing the entire ecodapA coding region; made in house; host or cells: E. coli BL21(DE3)/pBT442, supernatant of IPTG-induced extract
Method: as §2, §3, §4

wild type AKIII = biological target: T4, wild type AKIII (Escherichia coli, UniProt P08660); assay: Inhibition of AKIII by lysine; format: biochemical, E. coli
T4 construct: made in house; host or cells: E. coli (pBT436 in AK-deficient strain Gif106M1)
Method: as §1

[2] = tested on: Gif106M1 transformed with pBT436; assay: Growth inhibition in M9 media; format: cell-based, E. coli; conditions: M9 media with arginine, isoleucine, ampicillin; reversed by threonine plus methionine
Method: Addition of lysine (or diaminopimelate which is readily converted to lysine in vivo) at a concentration of approximately 0.2 mM to the growth medium inhibits the growth of Gif106M1 transformed with pBT436. M9 media [see Sambrook et al. (1989) Molecular Cloning: a Laboratory Manual, Cold Spring Harbor Laboratory Press] supplemented with the arginine and isoleucine, required for Gif106M1 growth, and ampicillin, to maintain selection for the pBT436 plasmid, was used. This inhibition is reversed by addition of threonine plus methionine to the growth media. […] This property of pBT436-transformed Gif106M1 was used to select for mutations in lysC that encoded lysine-insensitive AKIII.

T3 sequence (P0A6L2 whole entry F2V, the tested form may be a part): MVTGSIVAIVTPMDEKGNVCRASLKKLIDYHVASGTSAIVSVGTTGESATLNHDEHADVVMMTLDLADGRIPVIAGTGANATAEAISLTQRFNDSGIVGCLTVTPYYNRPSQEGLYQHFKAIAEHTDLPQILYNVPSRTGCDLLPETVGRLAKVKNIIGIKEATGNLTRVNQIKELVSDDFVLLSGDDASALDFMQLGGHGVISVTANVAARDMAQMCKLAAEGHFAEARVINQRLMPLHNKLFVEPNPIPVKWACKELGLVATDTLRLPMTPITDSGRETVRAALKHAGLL
T4 sequence (P08660 2-449): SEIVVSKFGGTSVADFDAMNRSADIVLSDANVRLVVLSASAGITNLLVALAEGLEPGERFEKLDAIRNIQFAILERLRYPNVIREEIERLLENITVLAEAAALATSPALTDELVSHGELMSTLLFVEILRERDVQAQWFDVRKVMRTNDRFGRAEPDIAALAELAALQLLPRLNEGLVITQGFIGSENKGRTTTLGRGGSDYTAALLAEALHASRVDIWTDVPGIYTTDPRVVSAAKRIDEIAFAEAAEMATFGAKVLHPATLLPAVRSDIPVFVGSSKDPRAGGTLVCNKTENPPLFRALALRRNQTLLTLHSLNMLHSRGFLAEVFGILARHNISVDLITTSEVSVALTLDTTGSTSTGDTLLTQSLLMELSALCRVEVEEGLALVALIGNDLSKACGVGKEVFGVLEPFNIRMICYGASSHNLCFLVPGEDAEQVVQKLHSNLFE
T2 sequence (P19808 whole entry S2A, the tested form may be a part): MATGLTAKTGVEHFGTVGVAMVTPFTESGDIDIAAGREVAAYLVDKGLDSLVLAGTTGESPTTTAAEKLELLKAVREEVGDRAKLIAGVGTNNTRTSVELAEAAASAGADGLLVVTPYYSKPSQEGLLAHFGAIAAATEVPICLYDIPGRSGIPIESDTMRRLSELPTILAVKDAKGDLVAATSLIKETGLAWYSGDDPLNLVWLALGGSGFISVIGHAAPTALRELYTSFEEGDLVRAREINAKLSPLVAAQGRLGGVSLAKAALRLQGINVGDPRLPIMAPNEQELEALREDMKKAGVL
T1 sequence (P08660 whole entry T352I): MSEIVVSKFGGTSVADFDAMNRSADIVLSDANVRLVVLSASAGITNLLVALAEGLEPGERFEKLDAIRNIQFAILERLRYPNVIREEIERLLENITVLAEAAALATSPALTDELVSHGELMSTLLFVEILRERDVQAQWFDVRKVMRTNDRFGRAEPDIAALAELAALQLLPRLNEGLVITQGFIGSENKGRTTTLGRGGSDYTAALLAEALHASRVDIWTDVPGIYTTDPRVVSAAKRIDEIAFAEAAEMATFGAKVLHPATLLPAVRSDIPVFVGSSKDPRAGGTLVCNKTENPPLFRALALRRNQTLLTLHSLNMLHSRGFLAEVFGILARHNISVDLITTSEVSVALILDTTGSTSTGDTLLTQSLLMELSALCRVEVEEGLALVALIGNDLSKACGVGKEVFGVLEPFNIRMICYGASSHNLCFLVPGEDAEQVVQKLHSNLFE

Structure (SMILES)	inhibition by lysine [1]	concentration of L-lysine that inhibits growth (DE126)	inhibition by L-lysine (Corynebacterium DHDPS)	inhibition by L-lysine (Corynebacterium DHDPS; listed as lysine)	IC50 (E. coli DHDPS)	fold less sensitive to inhibition by lysine than a typical plant enzyme, e.g., wheat DHDPS (E. coli DHDPS)	inhibited (wild type AKIII; 1 mM lysine)	IC50 (wild type AKIII; read-out: 50% inhibited, lysine concentration)	concentration in the growth medium that inhibits growth [2]
NCCCC[C@H](N)C(=O)O [L-lysine]	uninhibited	20 µg/mL	not inhibited at all	unaffected	~500 µM	at least 20 fold	> 90%	300 to 400 µM	approximately 0.2 mM
NC(CCCC(N)C(=O)O)C(=O)O (stereo not shown) [diaminopimelate]	–	–	–	–	–	–	–	–	approximately 0.2 mM
